Tested on: ovariectomized mouse (type I osteoporosis model animal)
Experiment: Change of bone mass in type I osteoporosis model animal (ovariectomized mice, dosing 3 months, femur pQCT)
Assay type: in vivo
Details: for Bone density Cancellous bone, relative value / Bone density whole bone, relative value / Cortical bone Bone density, relative value / Cortical bone Bone thickness, relative value / Cortical bone adventitia diameter, relative value / Cortical bone lining membrane diameter, relative value / Polar axis bone strength, relative value (Table 3): Sham group = 100; for Polar axis strength (polar coordinates strength): SSI from pQCT; for Bone density Cancellous bone / Bone density whole bone: right femur, pQCT
Excerpt: Female Slc: ddy mice of 4 weeks old (Japan SLC, Inc.) was operated with ovariectomy to use as a type I osteoporosis model animal. Also, in order to delete the affection by invasion, a group which is operated without ovariectomy (Sham operation) is set (Sham group). These were the […] model animals.
Animal bedding were changed twice a week and always to use all fresh one, CRF-1 (Oriental Yeast Co., Ltd.) is fed as feed and deionized water as drinking water were freely given. Their body weights were weighed twice a week by the end of the experiment.
Fargesin was dissolved in 30 mL of a solution (it is referred to as “TD solution”, hereinbelow) containing 4% dimethyl sulfoxide (it is referred to as “DMSO”, hereinbelow) and 4% TWEEN 80 (both were purchased from Wako Pure Chemical Industries, Ltd.) so as that a dosage amount of fargesin becomes 20 mg/kg body wt/day, or […].
After the surgical operation, the mice were adapted to the circumstances for 5 days, and then they were divided to the Sham group, the negative control, the positive control group, and the test substance administration group (6 mice per group). The ovariectomized mice were used for the negative control group, the positive control group, and the test substance administration group.
Fargesin solution was daily administrated to the ovariectomized mice in the test group at the dosage of 20 mg/kg body wt/day (it is referred to as “F20 group”, hereinbelow) or 100 mg/kg body wt/day (it is referred to as “F100 group”, hereinbelow) for 3 month p.o.
In order to study effects of fargesin on the bone, the femur, the largest long bone, was used.
The mice in each group were killed by the cervical dislocation under diethyl ether anesthesia. Their right femurs were excised with muscles, and the muscles were removed from the femur after the excision. Lengths of the excised bones from the mice in the groups were measured, and they were dipped in 70% ethanol to be fixed.
In FIG. 3, the bone was shown schematically. The long bone (tubular bone) was composed of two thick and rounded ends (epiphysis), and thin and long part between them (a shaft). The bone extends to longitudinal direction, depending on the growth of a plate-shape epiphyseal cartilage (a growth plate) between the epiphysis and the shaft. The region of 1 mm proximal side from the A position for a measurement was set to that from 1 mm proximal region (epiphysis) from the distal growth plate as decided as the measurement region.
The bone density was measured by using the peripheral quantitative computed tomography (pQCT, XCT Research SA+, Stratec Medizintechnik GmbH, Merk Ltd) (FIG. 3B). The measurement was performed under the conditions: a diameter of 90 mm, a voxel size of 0.12 mm, a CT speed of 10 mm/sec, and a block number of 1. Bone mineral content (mg/mm), bone density (mg/cm^3), and cross section of the bone (mm^2) of the entire of tomographic images (whole bone area) were calculated.
Next, the area of the cancellous bone was extracted (peel mode 20), and then the bone mineral amount (mg/mm), the section of the bone (mm^2), and the bone density (mg/cm^3) were calculated. Further to the cortical bone, the bone mineral amount (mg/mm), the bone density (mg/cm^3), the section of the bone (mm^2), a bone thickness (mm), the periosteum perimeter of the cortical bone (mm), and the endosteum perimeter of the cortical bone (mm) were calculated.
Based on the bone diameter and the bone density measured by the pQCT, SSI was calculated. SSI is composed of Polar SSI (torsion strength in polar coordination), X-axis SSI (strength in X axis, three-point bending strength), and Y-axis SSI (Y axis strength, three-point lateral bending strength), and it is expressed by the following general equation.
Wherein, Z is the coefficient of the cross section (mm^3), CBD is the bone density of the cortical bone (mg/cm^3), and ND is the physiological bone density (1200 mg/cm^3). The coefficient Z is shown as the following equation.

[1] = F20 group: 20 mg/kg body wt/day p.o.
[2] = F100 group: 100 mg/kg body wt/day p.o.
[3] = OVX mice, F20 group: 20 mg/kg body wt/day p.o., 3 months
[4] = OVX mice, F100 group: 100 mg/kg body wt/day p.o., 3 months

COc1ccc([C@@H]2OC[C@H]3[C@@H]2CO[C@@H]3c2ccc3c(c2)OCO3)cc1OC [fargesin, Fargesin]
Bone density Cancellous bone, relative value [1]: 123.0 | Bone density whole bone, relative value [1]: 100.8 | Cortical bone Bone density, relative value [1]: (97.4) | Cortical bone Bone thickness, relative value [1]: (91.1) | Cortical bone adventitia diameter, relative value [1]: (105.3) | Cortical bone lining membrane diameter, relative value [1]: (110.8) | Polar axis bone strength, relative value (Table 3) [1]: 104.2 | Bone density Cancellous bone, relative value [2]: 131.3 | Bone density whole bone, relative value [2]: 102.2 | Cortical bone Bone density, relative value [2]: (95.6) | Cortical bone Bone thickness, relative value [2]: (102.5) | Cortical bone adventitia diameter, relative value [2]: (104.2) | Cortical bone lining membrane diameter, relative value [2]: (104.9) | Polar axis bone strength, relative value (Table 3) [2]: 71.6 | Cortical bone Bone density [3]: 859.483 ± 2.479 mg/mL | Cortical bone Bone thickness [3]: 0.329 ± 0.026 mm | Cortical bone adventitia diameter [3]: 8.4160 ± 0.116 mm | Cortical bone lining membrane diameter [3]: 6.347 ± 0.160 mm | Polar axis bone strength (Table 3) [3]: 2.005 ± 0.154 mm^3 | bone mineral mass, cancellous bone [3]: 0.855±0.067 mg/mm | bone mineral mass, cortical bone [3]: 2.087±0.160 mg/mm | bone mineral mass, whole bone [3]: 3.638±0.164 mg/mm | cross section area of the bone, cortical bone [3]: 2.427±0.185 mm^2 | cross section area of the bone, whole bone [3]: 5.643±0.152 mm^2 | Polar axis strength (polar coordinates strength) [3]: 1.615±0.090 mm^3 | Bone density Cancellous bone [3]: 431.283 ± 30.506 mg/mL | Bone density whole bone [3]: 644.367 ± 20.387 mg/mL | Cortical bone Bone density [4]: 843.55 ± 8.714 mg/mL | Cortical bone Bone thickness [4]: 0.370 ± 0.051 mm | Cortical bone adventitia diameter [4]: 8.3300 ± 0.278 mm | Cortical bone lining membrane diameter [4]: 6.010 ± 0.313 mm | Polar axis bone strength (Table 3) [4]: 1.265 ± 0.147 mm^3 | bone cross section, whole bone [4]: 5.550±0.351 mm^2 | bone mineral mass, cancellous bone [4]: 0.920±0.102 mg/mm | bone mineral mass, cortical bone [4]: 2.240±0.320 mg/mm | bone mineral mass, whole bone [4]: 3.660±0.326 mg/mm | cross section area of the bone, cortical bone [4]: 2.640±0.361 mm^2 | Polar axis strength (polar coordinates strength) [4]: 1.666±0.087 mm^3 | Bone density Cancellous bone [4]: 460.500 ± 36.222 mg/mL | Bone density whole bone [4]: 653.300 ± 29.083 mg/mL
